# In article PMC10434765, “Exploring the potential of propanamide-sulfonamide based drug conjugates as dual inhibitors of urease and cyclooxygenase-2: biological and their in silico studies” (Frontiers in Chemistry, 2023):
# Read-outs that look alike come from different tables or passages of the source.
# Assays:
# [1] = system: carrageenan-induced acute inflammation in mice; assay: Carrageenan-induced paw edema anti-inflammatory study; assay type: in vivo; conditions: 10 mg/kg intraperitoneally, n = 6
# Experimental: As previously mentioned in our study, carrageenan-induced acute inflammation in mice was used to measure the anti-inflammatory effect ([Ahmed et al., 2018b]). Six groups of mice were formed and each group comprised six mice, the mice fasted 16 h before of induction of inflammation by injecting the phlogistic agent (carrageenan). The right hind paw of each mouse was measured before and after the 100 µL injection of the carrageenan (1% in 0.9% saline). The test substances, standard medication (indomethacin), and control (0.9% saline) were administered intraperitoneally at 10 mg/kg body weight. For 3 h, and after the 1-h interval, the thickness (mm) of the right hind paw of each mouse was measured. The difference in thickness of paw edema of control and test substance was used to determine the percentage inhibition of inflammation by the formula given below. Percentage inhibition of inflammation=Ct−CocontrolCt−Cotreated/Ct−Cocontrol×100 (2)
# Where Ct and Co are the right hind paw thickness after and before carrageenan injection.
# jack bean urease [2] = target: T1, jack bean urease (Canavalia ensiformis, UniProt P07374); assay: biochemical
# Experimental: Each tube received 400 µL of urea (20 mM) as substrate, which was then incubated for 10 min at the same temperature.
# Each inhibitor’s binding mechanism was tested at various doses (0–20 µM) for kinetics investigations. […] Lineweaver Burk plots were drawn using GraphPad PRISM 7.0 to determine the values of Km (app), Vmax (app), and Ki (inhibition constant).
# jack bean urease [3] = target: T1, jack bean urease; conditions: for Vmax (app): maximum rate at 20 µM of inhibitor concentration; for Mode of inhibition: urea 0.5-4.0 mM, inhibitor 0-20 µM; for % inhibition of urease: value in parentheses beside IC50, n = 3, concentration not given
# COX-2 enzyme = target: T2, COX-2 enzyme (Homo sapiens, UniProt P35354); assay: COX-2 inhibitory assay (Cayman kit); assay type: biochemical; conditions: n = 3
# T2 construct: purchased Cayman Chemical Company, United States Item No. 760151
# T2 sequence (P35354 18-604): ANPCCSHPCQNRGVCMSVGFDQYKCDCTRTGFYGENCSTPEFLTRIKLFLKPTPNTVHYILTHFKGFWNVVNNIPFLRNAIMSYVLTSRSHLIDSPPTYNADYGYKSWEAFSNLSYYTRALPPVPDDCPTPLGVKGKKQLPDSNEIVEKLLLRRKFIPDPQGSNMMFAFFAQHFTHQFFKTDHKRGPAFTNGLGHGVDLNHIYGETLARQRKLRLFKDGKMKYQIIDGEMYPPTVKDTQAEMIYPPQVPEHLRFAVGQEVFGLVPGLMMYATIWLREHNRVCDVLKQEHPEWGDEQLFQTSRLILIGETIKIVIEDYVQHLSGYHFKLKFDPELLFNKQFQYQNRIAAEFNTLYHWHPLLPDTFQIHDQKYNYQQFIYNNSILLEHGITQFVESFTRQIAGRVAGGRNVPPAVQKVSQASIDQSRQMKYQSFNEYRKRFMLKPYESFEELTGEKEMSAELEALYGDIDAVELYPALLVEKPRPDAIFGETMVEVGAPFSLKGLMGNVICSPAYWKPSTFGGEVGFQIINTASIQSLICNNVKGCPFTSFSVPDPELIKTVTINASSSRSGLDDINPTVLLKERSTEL
# Experimental: For the initial activity assay, 150 µL buffer, 10 µL heme, and 10 µL COX-2 enzyme were mixed in a well whereas 110 µL buffer, 10 µL heme, 10 µL COX-2 enzyme, and 40 µL test inhibitor (10 µM) were mixed for inhibitory assay using 96 wells plate.
# T1 sequence (P07374 whole entry, looked up): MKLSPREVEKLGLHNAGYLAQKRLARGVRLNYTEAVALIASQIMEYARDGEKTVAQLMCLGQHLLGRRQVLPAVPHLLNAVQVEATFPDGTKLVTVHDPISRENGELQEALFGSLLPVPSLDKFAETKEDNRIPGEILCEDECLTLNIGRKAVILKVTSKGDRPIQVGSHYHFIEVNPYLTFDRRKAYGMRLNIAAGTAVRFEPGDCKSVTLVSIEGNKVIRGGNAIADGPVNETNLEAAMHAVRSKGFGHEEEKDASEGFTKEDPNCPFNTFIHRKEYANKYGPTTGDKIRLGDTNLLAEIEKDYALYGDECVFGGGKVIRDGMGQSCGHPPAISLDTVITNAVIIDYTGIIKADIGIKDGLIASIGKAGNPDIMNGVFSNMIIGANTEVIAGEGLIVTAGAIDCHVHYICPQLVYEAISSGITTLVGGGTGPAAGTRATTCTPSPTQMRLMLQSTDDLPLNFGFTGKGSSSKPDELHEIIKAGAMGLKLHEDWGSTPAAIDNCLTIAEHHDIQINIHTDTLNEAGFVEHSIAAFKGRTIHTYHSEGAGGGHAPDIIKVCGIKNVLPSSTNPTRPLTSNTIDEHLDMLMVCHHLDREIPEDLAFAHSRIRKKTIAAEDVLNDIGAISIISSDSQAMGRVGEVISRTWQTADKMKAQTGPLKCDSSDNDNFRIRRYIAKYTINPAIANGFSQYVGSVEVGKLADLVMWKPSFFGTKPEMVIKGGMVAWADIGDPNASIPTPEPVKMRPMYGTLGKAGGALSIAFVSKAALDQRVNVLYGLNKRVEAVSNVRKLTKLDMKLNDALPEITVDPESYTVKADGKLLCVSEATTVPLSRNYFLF
Structure (SMILES),Paw edema in mm (mean ± SEM) ([1]; 0 h),% inhibition of paw edema ([1]; 1 h) [%],Paw edema in mm (mean ± SEM) ([1]; 1 h) [mm],% inhibition of paw edema ([1]; 2 h) [%],Paw edema in mm (mean ± SEM) ([1]; 2 h) [mm],% inhibition of paw edema ([1]; 3 h) [%],Paw edema in mm (mean ± SEM) ([1]; 3 h) [mm],melting point [°C],IC50 (jack bean urease [2]) [µM],Ki (jack bean urease [2]) [µM],Vmax (app) (jack bean urease [3]; Lineweaver Burk plot) [µM/min],Mode of inhibition (jack bean urease [3]),% inhibition of urease (jack bean urease [3]) [%],inhibition at 10 µM (COX-2 enzyme) [%],"IC50 (jack bean urease [3]; read-out: IC50 (µM), mean ± SEM, jack bean urease, n = 3, thiourea as standard) [µM]","Ki (jack bean urease [3]; read-out: Ki (inhibition constant), secondary Lineweaver Burk plot) [µM]","Km (jack bean urease [3]; read-out: Km (app), Michaelis constant at 20 µM of inhibitor concentration, Lineweaver Burk plot) [µM]"
"COc1ccc2cc([C@H](C)C(=O)O)ccc2c1 [Naproxen, reference compound]",1.81 ± 0.06 (−) mm,21.1,2.60 ± 0.13,46.3,2.53 ± 0.11,76.1,2.41 ± 0.12,,,,,,,,,,
"COc1ccc2cc([C@H](C)C(=O)Nc3ccc(S(=O)(=O)Nc4nccc(C)n4)cc3)ccc2c1 [Conjugate 7, (S)-2-(6-methoxynaphthalen-2-yl)-N-(4-(N-(4-methylpyrimidin-2-yl)sulfamoyl)phenyl)propanamide]",,,,,,,,160 to 162,16.57 ± 0.14,9.98,0.602,Mixed,84.3,,,,
"COc1ccc2cc([C@H](C)C(=O)Nc3ccc(S(=O)(=O)Nc4cc(C)on4)cc3)ccc2c1 [Conjugate 8, (S)-2-(6-methoxynaphthalen-2-yl)-N-(4-(N-(5-methylisoxazol-3-yl)sulfamoyl)phenyl)propanamide]",1.80 ± 0.08 (−) mm,24.1,2.56 ± 0.14,47.0,2.51 ± 0.08,82.8,2.23 ± 0.12,178 to 180,29.64 ± 0.27,,,,87.6,75.4,,,
"COc1ccc2cc([C@H](C)C(=O)Nc3ccc(S(=O)(=O)Nc4ncccn4)cc3)ccc2c1 [Conjugate 6, (S)-2-(6-methoxynaphthalen-2-yl)-N-(4-(N-(pyrimidin-2-yl)sulfamoyl)phenyl)propanamide]",,,,,,,,163 to 165,4.08 ± 0.1,5.58,0.363,Mixed,90.3,,,,
"NC(N)=S [Thiourea, reference compound]",,,,,,,,,,,18.61,Competitive,92.3,,22.6 ± 0.23,18.2,2180
"COc1ccc2cc([C@H](C)C(=O)Nc3ccc(S(=O)(=O)NC(=N)N)cc3)ccc2c1 [Conjugate 10, (S)-N-(4-(N-carbamimidoylsulfamoyl)phenyl)-2-(6-methoxynaphthalen-2-yl)propanamide]",,,,,,,,,5.06 ± 0.29,3.56,1.96,Competitive,89.1,,,,
"COc1ccc2cc([C@H](C)C(=O)Nc3ccc(S(=O)(=O)Nc4nccs4)cc3)ccc2c1 [Conjugate 5, (S)-2-(6-methoxynaphthalen-2-yl)-N-(4-(N-(thiazol-2-yl)sulfamoyl)phenyl)propanamide]",1.81 ± 0.05 (−) mm,9.1,2.71 ± 0.09,43.3,2.57 ± 0.11,75.3,2.43 ± 0.08,184 to 185,5.82 ± 0.28,5.05,0.714,Competitive,88.9,61.3,,,
"COc1ccc2cc([C@H](C)C(=O)Nc3ccc(S(N)(=O)=O)cc3)ccc2c1 [Conjugate 3, (S)-2-(6-methoxynaphthalen-2-yl)-N-(4-sulfamoylphenyl)propanamide]",,,,,,,,208 to 210,6.69 ± 0.11,2.4,2.57,Competitive,89.4,,,,
"COc1ccc2c(c1)c(CC(=O)O)c(C)n2C(=O)c1ccc(Cl)cc1 [Indomethacin, reference compound]",1.81 ± 0.05 (−) mm,20.1,2.61 ± 0.14,55.2,2.41 ± 0.09,86.8,2.14 ± 0.09,,,,,,,,,,
"COc1ccc2cc([C@H](C)C(=O)Nc3ccc(S(=O)(=O)NC(C)=O)cc3)ccc2c1 [Conjugate 9, (S)-N-(4-(N-acetylsulfamoyl)phenyl)-2-(6-methoxynaphthalen-2-yl)propanamide]",,,,,,,,138 to 140,20.32 ± 0.12,2.61,0.66,Mixed,85.7,,,,
"COc1ccc2cc([C@H](C)C(=O)Nc3ccc(S(=O)(=O)Nc4onc(C)c4C)cc3)ccc2c1 [Conjugate 4, (S)-N-(4-(N-(3,4-dimethylisoxazol-5-yl)sulfamoyl)phenyl)-2-(6-methoxynaphthalen-2-yl)propanamide]",1.80 ± 0.04 (−) mm,8.2,2.72 ± 0.12,45.5,2.53 ± 0.09,78.0,2.36 ± 0.11,241 to 243,25.63 ± 0.24,,,,94.1,64.5,,,
